This test deals with recombinant human Tyro3 (Homo sapiens (Human), UniProt Q06418). The test can be described thus: Tyro3 Enzymatic Assay. It is filed as biochemical. Particulars: radiometric [32P]-ATP kinase assay, Poly(Glu, Tyr) substrate, 2 nM enzyme. The protocol:
Poly(Glu, Tyr) sodium salt (Glu:Tyr (4:1), quality level 200, molecular weight 5,000-20,000, obtained from Sigma Aldrich, catalogue #P7244, assay concentration 0.20 mg/mL) and recombinant human Tyro3 (obtained from ThermoFisher Scientific, catalogue #PV3828, assay concentration 2 nM) were mixed in assay buffer (20 mM Hepes pH 7.5, 10 mM MgCl2, […] EGTA, 0.02% Brij35, 0.02 mg/ml BSA, 0.1 mM Na3VO4, 2 mM DTT, 1% DMSO, with added MnCl2 at a final concentration of 2 mM). Compounds of interest (in DMSO, serial 3-fold dilution from 10 μM to 0.5 nM) or control (1% DMSO) were dispensed into the kinase reaction mixture by Acoustic technology (Echo550; nanoliter range). After incubation at room temperature for 20 minutes, the kinase reaction was initiated by addition of [^32P]-ATP (Specific activity 10 μCi/μL) and the mixture was incubated at room temperature for 2 hours. The reaction was then stopped by spotting the reaction mixture on strips of phosphocellulose P81 paper. Following washing, the radioactivity of the P81 paper was measured and kinase activity data were expressed as the percent remaining kinase activity in test samples compared to vehicle (dimethyl sulfoxide) reactions. IC50 values and curve fits were obtained using Prism (GraphPad Software).

As a reminder, the IC50 is the concentration needed to halve the response being measured.

A value given as a limit tells only on which side of the number the result lay.

Sequence of recombinant human Tyro3 (Q06418 41-890): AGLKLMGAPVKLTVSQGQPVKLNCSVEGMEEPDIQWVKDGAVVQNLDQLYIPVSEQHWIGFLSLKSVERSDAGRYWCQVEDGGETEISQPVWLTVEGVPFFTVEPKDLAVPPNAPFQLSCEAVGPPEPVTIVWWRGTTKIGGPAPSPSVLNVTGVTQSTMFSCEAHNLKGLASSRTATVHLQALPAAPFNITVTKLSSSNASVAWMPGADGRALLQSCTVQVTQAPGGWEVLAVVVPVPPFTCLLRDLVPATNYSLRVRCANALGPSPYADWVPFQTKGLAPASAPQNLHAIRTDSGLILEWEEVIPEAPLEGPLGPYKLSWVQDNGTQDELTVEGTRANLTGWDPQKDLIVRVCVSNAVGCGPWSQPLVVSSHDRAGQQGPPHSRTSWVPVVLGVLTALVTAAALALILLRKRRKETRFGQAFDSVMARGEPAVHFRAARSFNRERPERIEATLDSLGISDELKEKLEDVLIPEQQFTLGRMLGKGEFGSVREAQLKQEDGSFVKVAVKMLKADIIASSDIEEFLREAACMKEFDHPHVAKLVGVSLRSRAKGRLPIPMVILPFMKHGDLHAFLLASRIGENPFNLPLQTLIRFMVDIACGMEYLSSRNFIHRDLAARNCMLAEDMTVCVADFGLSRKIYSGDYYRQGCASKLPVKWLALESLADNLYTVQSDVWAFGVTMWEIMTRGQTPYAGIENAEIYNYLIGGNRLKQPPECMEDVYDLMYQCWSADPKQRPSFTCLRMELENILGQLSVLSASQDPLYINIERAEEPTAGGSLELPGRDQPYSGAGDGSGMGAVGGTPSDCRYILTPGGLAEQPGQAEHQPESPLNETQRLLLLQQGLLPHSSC

For `CCc1[nH]c2ncc(-c3cn(C4CCN(C)CC4)nc3F)cc2c1-c1cccc(F)c1` [Compound 25, 2-ethyl-5-(3-fluoro-1-(1-methylpiperidin-4-yl)-1H-pyrazol-4-yl)-3-(3-fluorophenyl)-1H-pyrrolo[2,3-b]pyridine], the concentration for half-maximal inhibition (IC50) was 0.051 to 0.15 µM.

Turning to `COc1ccc(-c2c[nH]c3ncc(-c4cn(C5CCN(C)CC5)nc4C)cc23)cn1` [Compound 8, 3-(6-methoxypyridin-3-yl)-5-(3-methyl-1-(1-methylpiperidin-4-yl)-1H-pyrazol-4-yl)-1H-pyrrolo[2,3-b]pyridine], the IC50 lay in the range of 0.151 to 0.501 µM.

Turning to `COc1nn(C2CCN(C(C)=O)CC2)cc1-c1cnc2[nH]cc(-c3cccc(F)c3)c2c1` [Compound 30, 1-(4-(4-(3-(3-fluorophenyl)-1H-pyrrolo[2,3-b]pyridin-5-yl)-3-methoxy-1H-pyrazol-1-yl)piperidin-1-yl)ethan-1-one], the IC50 was > 0.5 µM.

With `CCc1[nH]c2ncc(-c3cn(C4CCN(C)CC4)nc3OC)cc2c1-c1cccc(C(F)F)c1` [Compound 27, 3-(3-(difluoromethyl)phenyl)-2-ethyl-5-(3-methoxy-1-(1-methylpiperidin-4-yl)-1H-pyrazol-4-yl)-1H-pyrrolo[2,3-b]pyridine], the IC50 lay in the range of 0.051 to 0.15 µM.

Take `COc1ccc(-c2c[nH]c3ncc(-c4cnn(C5CCN(C)CC5)c4C)cc23)cn1` [Compound 9, 3-(6-methoxypyridin-3-yl)-5-(5-methyl-1-(1-methylpiperidin-4-yl)-1H-pyrazol-4-yl)-1H-pyrrolo[2,3-b]pyridine]: the IC50 was > 0.5 µM.

On to `CCc1[nH]c2ncc(-c3cn(C4CCN(C)CC4)nc3OC)cc2c1-c1ccc(OC)nc1` [Compound 21, 2-ethyl-5-(3-methoxy-1-(1-methylpiperidin-4-yl)-1H-pyrazol-4-yl)-3-(6-methoxypyridin-3-yl)-1H-pyrrolo[2,3-b]pyridine], for which the IC50 is 0.051 to 0.15 µM.

Consider `COc1nn(C2CCN(C)C2)cc1-c1cnc2[nH]cc(-c3cccc(F)c3)c2c1` (stereo not shown) [Compound 12, 3-(3-fluorophenyl)-5-(3-methoxy-1-(1-methylpyrrolidin-3-yl)-1H-pyrazol-4-yl)-1H-pyrrolo[2,3-b]pyridine], for which the IC50 was < 0.05 µM.

With `COc1nn(C2CCN(C)CC2)cc1-c1cnc2[nH]c(Cl)c(-c3cccc(F)c3)c2c1` [Compound 28, 2-chloro-3-(3-fluorophenyl)-5-(3-methoxy-1-(1-methylpiperidin-4-yl)-1H-pyrazol-4-yl)-1H-pyrrolo[2,3-b]pyridine], the IC50 fell in the range of 0.051 to 0.15 µM.

As to `COc1nn(C2CCN(C)CC2)cc1-c1cnc2[nH]cc(-c3ccnc(C(F)F)c3)c2c1` [Compound 20, 3-(2-(difluoromethyl)pyridin-4-yl)-5-(3-methoxy-1-(1-methylpiperidin-4-yl)-1H-pyrazol-4-yl)-1H-pyrrolo[2,3-b]pyridine], the IC50 is < 0.05 µM.

With `COc1ccc(-c2c[nH]c3ncc(-c4cn(C5CCN(C)CC5)nc4OC)cc23)cn1` [Compound 2, 5-(3-methoxy-1-(1-methylpiperidin-4-yl)-1H-pyrazol-4-yl)-3-(6-methoxypyridin-3-yl)-1H-pyrrolo[2,3-b]pyridine], the IC50 is < 0.05 µM.

The values above are taken from patent publication US20250019378A1, “PYRROLE[2,3-B]PYRIDINE DERIVATIVES AS TYRO3 INHIBITORS” (HALIA THERAPEUTICS, INC., priority 2021, published 2025).
